Data on eleven compounds can be found in ChEMBL document CHEMBL4270593, “Novel spiroindoline HDAC inhibitors: Synthesis, molecular modelling and biological studies” (Eur J Med Chem, 2018).

Molecules are shown by their SMILES. The source made the active and inactive calls. No cut-off for these calls is given here.

In data set [1] the test system is NB-4. Nature of the data set: Induction of cell cycle arrest in human NB4 cells assessed as accumulation at G1 phase after 30 hrs by propidium iodide-based FACS analysis. The data set is classed as functional. (In flow cytometry, cells or beads pass a laser one at a time.)
Data set [2] is described as follows: Inhibition of class 1 HDAC in human NB4 cells assessed as levels of histone H3 acetylation at lysine 9/14 at 5 uM after 30 hrs by Western blot analysis relative to control. For orientation: Immunoblotting shows a protein as a band on a membrane.
For data set [3], the species on record is Homo sapiens. In words: Selectivity ratio of IC50 for human recombinant C-terminal His/FLAG-tagged full length HDAC1 to IC50 for N-terminal GST-tagged full length HDAC6.
Data set [4] has as its target Histone deacetylase 1 (Homo sapiens, UniProt Q13547). Nature of the data set: Inhibition of human recombinant C-terminal His/FLAG-tagged full length HDAC1 expressed in insect SF9 cells using fluorogenic ZMAL as substrate after 90 mins by fluorescence-based assay.
Data set [5] in a line: Inhibition of class 1 HDAC in human NB4 cells assessed as levels of histone H3 acetylation at lysine 9/14 at 1 uM after 30 hrs by Western blot analysis relative to control.
The target of data set [6] is T1, Protein deacetylase HDAC6 (Homo sapiens, UniProt Q9UBN7).
T1 sequence (Q9UBN7 whole entry): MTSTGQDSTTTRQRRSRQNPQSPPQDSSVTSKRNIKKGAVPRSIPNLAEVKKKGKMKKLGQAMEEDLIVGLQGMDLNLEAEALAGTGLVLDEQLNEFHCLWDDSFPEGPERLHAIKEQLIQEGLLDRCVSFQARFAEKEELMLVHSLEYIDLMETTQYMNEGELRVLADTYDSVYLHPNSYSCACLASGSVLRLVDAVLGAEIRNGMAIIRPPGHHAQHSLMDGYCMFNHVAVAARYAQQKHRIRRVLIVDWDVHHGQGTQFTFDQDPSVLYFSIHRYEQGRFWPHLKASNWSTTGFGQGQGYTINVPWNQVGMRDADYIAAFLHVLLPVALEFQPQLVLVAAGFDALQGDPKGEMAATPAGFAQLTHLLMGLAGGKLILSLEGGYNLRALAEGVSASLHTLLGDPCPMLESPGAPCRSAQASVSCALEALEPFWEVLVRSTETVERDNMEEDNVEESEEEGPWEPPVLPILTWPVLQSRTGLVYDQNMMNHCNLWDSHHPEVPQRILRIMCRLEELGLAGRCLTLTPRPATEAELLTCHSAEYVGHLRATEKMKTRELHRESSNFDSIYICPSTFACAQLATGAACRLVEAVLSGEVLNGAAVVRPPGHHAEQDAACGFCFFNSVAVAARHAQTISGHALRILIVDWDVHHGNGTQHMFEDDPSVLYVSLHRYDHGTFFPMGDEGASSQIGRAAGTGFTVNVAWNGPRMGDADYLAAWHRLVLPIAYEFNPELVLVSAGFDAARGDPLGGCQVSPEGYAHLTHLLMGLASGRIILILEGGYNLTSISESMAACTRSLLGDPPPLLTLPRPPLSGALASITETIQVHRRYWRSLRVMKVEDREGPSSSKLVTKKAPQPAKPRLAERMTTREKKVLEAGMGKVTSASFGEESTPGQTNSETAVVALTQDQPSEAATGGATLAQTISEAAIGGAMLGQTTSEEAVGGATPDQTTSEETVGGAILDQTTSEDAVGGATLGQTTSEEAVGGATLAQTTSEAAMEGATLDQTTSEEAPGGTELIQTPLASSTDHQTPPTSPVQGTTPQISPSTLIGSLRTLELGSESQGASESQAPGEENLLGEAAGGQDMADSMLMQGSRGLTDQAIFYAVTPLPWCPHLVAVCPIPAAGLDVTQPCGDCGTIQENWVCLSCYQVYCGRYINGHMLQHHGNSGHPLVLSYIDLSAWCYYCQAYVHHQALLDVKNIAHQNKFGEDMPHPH
Nature of the data set: Inhibition of human recombinant N-terminal GST-tagged full length HDAC6 expressed in insect SF9 cells using fluorogenic ZMAL as substrate after 90 mins by fluorescence-based assay.

Data set [7] deals with T2, Histone deacetylase 8 (Homo sapiens, UniProt Q9BY41).
T2 sequence (Q9BY41 whole entry): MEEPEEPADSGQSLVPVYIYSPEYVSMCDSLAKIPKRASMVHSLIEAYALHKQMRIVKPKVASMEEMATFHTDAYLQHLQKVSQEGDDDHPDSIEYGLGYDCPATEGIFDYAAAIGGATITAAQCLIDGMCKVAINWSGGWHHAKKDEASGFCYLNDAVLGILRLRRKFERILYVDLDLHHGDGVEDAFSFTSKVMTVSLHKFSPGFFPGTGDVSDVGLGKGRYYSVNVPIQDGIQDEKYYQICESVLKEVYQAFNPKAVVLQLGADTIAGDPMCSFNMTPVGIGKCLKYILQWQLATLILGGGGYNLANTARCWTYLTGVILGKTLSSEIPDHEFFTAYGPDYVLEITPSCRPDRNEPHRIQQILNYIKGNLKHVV
In words: Inhibition of human recombinant HDAC8 using fluor de Lys(R) as substrate after 90 mins by fluorescence-based assay.

Data set [8] in a line: Inhibition of class 1 HDAC in human U87 cells assessed as levels of histone H3 acetylation at lysine 9/14 at 1 uM after 30 hrs by Western blot analysis relative to control. The settings on record: u87, 30 h.
Data set [9] concerns the target T3, Protein deacetylase HDAC6 (Homo sapiens) (UniProt Q9UBN7).
T3 sequence (whole entry): T1 sequence (Q9UBN7 whole entry)
In words: Inhibition of HDAC6 in human U87 cells assessed as increase in levels of alpha-tubulin acetylation after 30 hrs by Western blot analysis. The data set is classed as cell-based.

Data set [10] can be described thus: Inhibition of class 1 HDAC in human U87 cells assessed as levels of histone H3 acetylation at lysine 9/14 at 5 uM after 30 hrs by Western blot analysis relative to control. As to conditions: u87, 30 h.
The species named for data set [11] is Homo sapiens. In words: Selectivity ratio of IC50 for human recombinant C-terminal His/FLAG-tagged full length HDAC2 to IC50 for human recombinant N-terminal GST-tagged full length HDAC6.
For data set [12], the species on record is Homo sapiens. Nature of the data set: Selectivity ratio of IC50 for human recombinant C-terminal His-tagged full length HDAC3/NcoR2 to IC50 for human recombinant N-terminal GST-tagged full length HDAC6.
Data set [13] relates to NB-4. Nature of the data set: Induction of cell cycle arrest in human NB4 cells assessed as accumulation at G1 phase at 5 uM after 30 hrs by propidium iodide-based FACS analysis. In kind it is functional.
Data set [14] is described as follows: Inhibition of class 1 HDAC in human SH-SY5Y cells assessed as levels of histone H3 acetylation at lysine 9/14 at 5 uM after 30 hrs by Western blot analysis relative to control.
A short description of data set [15]: Inhibition of class 1 HDAC in human SH-SY5Y cells assessed as levels of histone H3 acetylation at lysine 9/14 at 1 uM after 30 hrs by Western blot analysis relative to control.
Data set [16] addresses T3, Protein deacetylase HDAC6 (Homo sapiens). Nature of the data set: Inhibition of HDAC6 in human SH-SY5Y cells assessed as increase in levels of alpha-tubulin acetylation after 30 hrs by Western blot analysis. In kind it is cell-based.
The test system of data set [17] is NB-4. In words: Induction of cell death in human NB4 cells assessed as DNA fragmentation at 5 uM after 30 hrs by propidium iodide-based FACS analysis. In kind it is functional.
Data set [18] addresses T3, Protein deacetylase HDAC6 (Homo sapiens). In words: Inhibition of HDAC6 in human SH-SY5Y cells assessed as reduction in cell migration at 5 uM measured every 2 mins for 4 days by RTCA based assay.
The nature of data set [19]: Cytotoxicity against mouse NIH/3T3 cells assessed as reduction in cell viability by neutral red uptake test. The settings on record: read-out: TC50 (the source's name). In kind it is cell-based, NIH3T3.

Sequence of Histone deacetylase 1 (Q13547 whole entry): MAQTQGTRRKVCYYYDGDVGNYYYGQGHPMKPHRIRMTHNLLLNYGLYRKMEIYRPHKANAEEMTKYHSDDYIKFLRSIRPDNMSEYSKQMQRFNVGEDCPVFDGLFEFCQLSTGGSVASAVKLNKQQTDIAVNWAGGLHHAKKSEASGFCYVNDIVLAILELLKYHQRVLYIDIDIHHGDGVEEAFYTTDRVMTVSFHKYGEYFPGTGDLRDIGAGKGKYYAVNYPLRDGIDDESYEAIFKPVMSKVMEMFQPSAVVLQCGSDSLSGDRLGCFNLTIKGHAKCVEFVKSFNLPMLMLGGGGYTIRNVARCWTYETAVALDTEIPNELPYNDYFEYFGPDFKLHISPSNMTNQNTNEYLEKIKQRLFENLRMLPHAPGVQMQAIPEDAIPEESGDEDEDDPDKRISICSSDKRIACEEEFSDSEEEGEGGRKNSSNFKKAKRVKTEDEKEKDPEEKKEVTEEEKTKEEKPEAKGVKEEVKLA

As for `O=C(CCCCCCC(=O)Nc1ccccc1)NO`, the outcome in data set [1] was Active.
Regarding `O=C(NO)c1ccc(CN2CC3(CCCCC3)c3ccccc32)cc1`, the FC turned out to be 2.58 in data set [2], 2.27 in data set [5], 1.77 in data set [8] and 2.21 in data set [10]. In addition, the Ratio IC50 in [3] is 166. Besides, the values for the half-inhibitory concentration (IC50) in [4], in data set [6] and in data set [7] were 6790 nM, 40.9 nM and 253 nM, respectively. Moreover, the inhibition result in data set [9] was “Dose-dependent effect”.
With `O=C(CCCCCCNC(=O)c1cnc(N(c2ccccc2)c2ccccc2)nc1)NO`, the Ratio IC50 in [3], in [11] and in data set [12] was 10 throughout.
For `CC(C)(C)C(=O)N1CCC2(CC1)CN(Cc1ccc(C(=O)NO)cc1)c1ccccc12`, in [3], the Ratio IC50 is 74. Besides, the values for the half-inhibitory concentration (IC50) in [4] and in data set [6] were 4470 nM and 60.1 nM, respectively. The result in [13] was Active.
As to `CN1CCC2(CC1)CN(Cc1ccc(C(=O)NO)s1)c1ccccc12`, the Ratio IC50 in [3] is 6. Moreover, the half-inhibitory concentration (IC50) in data set [4] was determined as 11400 nM; in [6], 1780 nM.
Regarding `CN1CCc2c(c3ccccc3n2Cc2ccc(C(=O)NO)cc2)C1` [TUBASTATIN A], the FC was 0.97 in data set [2]; 0.84 in data set [5]; 1.17 in data set [14]; 1.13 in data set [15]; 1.68 to 1.97 in [8]; 2.18 to 2.38 in [10].
Consider `CC(C)(C)OC(=O)N1CCC2(CC1)CN(Cc1ccc(C(=O)NO)s1)c1ccccc12`, for which the Ratio IC50 in data set [3] is 15. The 50% inhibitory concentration (IC50) in data set [4] is 10900 nM; in data set [6], 719 nM; in [7] it was 1340 nM.
On to `CN1CCC2(CC1)CN(Cc1ccc(C(=O)NO)cc1)c1ccccc12`, for which the FC is listed as 2.44 in data set [2], 1.02 in data set [5], 1.83 in [8] and 1.6 in data set [10]. In addition, the Ratio IC50 in data set [3] is 57. Moreover, the IC50 in data set [4] amounted to 11700 nM; in data set [6], 204 nM. The inhibition entry in [9] is “Dose-dependent effect”.
In the case of `O=C(CCCCCCNC(=O)c1cnc(N(c2ccccc2)c2ccccc2Cl)nc1)NO`, the Ratio IC50 in data set [3], in data set [11] and in data set [12] was 10 each time.
As to `CC(C)(C)OC(=O)N1CCC2(CC1)CN(Cc1ccc(C(=O)NO)cc1)c1ccccc12`, the FC in data set [2] is listed as 0.96; in data set [5], 1.12; in data set [14], 1.11; in [15], 1.1; in [8], 2.74; in data set [10], 2.12. For the same compound, in [3], the Ratio IC50 was 95. For the same compound, the IC50 in data set [4] was 4000 nM; in [6], 41.9 nM; in data set [7], 1600 nM. The inhibition result in data set [16] was “Dose-dependent effect”. Besides, in data set [17], the result was Active. Further, the inhibition result in data set [18] was “Active”. Moreover, the CC50 in [19] is 23000 nM.
For the compound `CC(=O)N1CCC2(CC1)CN(Cc1ccc(C(=O)NO)cc1)c1ccccc12`, the Ratio IC50 in data set [3] worked out at 116. The values for the IC50 in [4] and in [6] were 7290 nM and 62.5 nM, respectively.

Broadly, the IC50 is the point on the concentration scale where inhibition reaches its midpoint.
